Measurements reported in patent US12599136B2, “Substituted isophthalic acid diamides and their use as herbicides” (Bayer Aktiengesellschaft, priority 2020, dated 2026).

Tests used:
Assay type in all cases: in vivo
[1] = tested on: Echinochloa crus-galli; assay: Pre-emergence herbicidal action against ECHCG; conditions: visual score after 3 weeks vs untreated controls
From the text: (§1) Seeds of monocotyledonous and dicotyledonous weed plants and crop plants are laid out in sandy loam soil in wood-fiber pots and covered with soil. The compounds of the invention, formulated in the form of wettable powders (WP) or as emulsion concentrates (EC), are then applied to the surface of the covering soil in the form of an aqueous suspension or emulsion at a water application rate equivalent to 600 to 800 l/ha, with addition of 0.2% wetting agent. After the treatment, the pots are placed in a greenhouse and kept under good growth conditions for the trial plants. The damage to the test plants is scored visually after a test period of 3 weeks by comparison with untreated controls (herbicidal activity in percent (%): 100% activity=the plants have died, 0% activity=like control plants). […] The tables below illustrate, in an illustrative manner, the post-emergence herbicidal action of the compounds of the invention, the herbicidal activity being stated in percent.

[2] = tested on: Digitaria sanguinalis; assay: Pre-emergence herbicidal action against DIGSA
From the text: as §1

[3] = tested on: Alopecurus myosuroides; assay: Post-emergence herbicidal action against ALOMY; conditions: 20 g/ha
Method: (§2) Seeds of monocotyledonous and dicotyledonous weed and crop plants are laid out in sandy loam soil in wood-fiber pots, covered with soil and cultivated in a greenhouse under good growth conditions. 2 to 3 weeks after sowing, the test plants are treated at the one-leaf stage. The compounds of the invention, formulated in the form of wettable powders (WP) or as emulsion concentrates (EC), are then sprayed onto the green parts of the plants in the form of an aqueous suspension or emulsion at a water application rate equivalent to 600 to 800 l/ha, with addition of 0.2% wetting agent. After the test plants have been left to stand in the greenhouse under optimal growth conditions for about 3 weeks, the action of the preparations is assessed visually in comparison to untreated controls (herbicidal action in percent (%): 100% activity=the plants have died, 0% activity=like control plants). […] The tables below illustrate, in an illustrative manner, the post-emergence herbicidal action of the compounds of the invention, the herbicidal activity being stated in percent.

[4] = tested on: Matricaria inodora; assay: Post-emergence herbicidal action against MATIN; conditions: visual assessment about 3 weeks after treatment
Method: as §2

[5] = tested on: Viola tricolor; assay: Pre-emergence herbicidal action against VIOTR
From the text: as §1

[6] = tested on: Echinochloa crus-galli; assay: Post-emergence herbicidal action against ECHCG; conditions: visual assessment about 3 weeks after treatment
Method: as §2

[7] = tested on: Alopecurus myosuroides; assay: Pre-emergence herbicidal action against ALOMY; conditions: visual score after 3 weeks vs untreated controls
From the text: as §1

[8] = tested on: Setaria viridis; assay: Pre-emergence herbicidal action against SETVI
From the text: as §1

[9] = tested on: Veronica persica; assay: Post-emergence herbicidal action against VERPE; conditions: 20 g/ha, visual assessment about 3 weeks after treatment
Method: as §2

[10] = tested on: Amaranthus retroflexus; assay: Pre-emergence herbicidal action against AMARE; conditions: visual score after 3 weeks vs untreated controls
From the text: as §1

[11] = tested on: Abutilon theophrasti; assay: Pre-emergence herbicidal action against ABUTH; conditions: visual score after 3 weeks vs untreated controls
From the text: as §1

[12] = tested on: Veronica persica; assay: Pre-emergence herbicidal action against VERPE
From the text: as §1

[13] = tested on: Matricaria inodora; assay: Pre-emergence herbicidal action against MATIN; conditions: visual score after 3 weeks vs untreated controls
From the text: as §1

[14] = tested on: Setaria viridis; assay: Post-emergence herbicidal action against SETVI; conditions: visual assessment about 3 weeks after treatment
Method: as §2

[15] = tested on: Amaranthus retroflexus; assay: Post-emergence herbicidal action against AMARE; conditions: visual assessment about 3 weeks after treatment
Method: as §2

[16] = tested on: Cyperus esculentus; assay: Pre-emergence herbicidal action against CYPES; conditions: visual score after 3 weeks vs untreated controls
From the text: as §1

[17] = tested on: Stellaria media; assay: Pre-emergence herbicidal action against STEME; conditions: 320 g/ha
From the text: as §1

[18] = tested on: Stellaria media; assay: Post-emergence herbicidal action against STEME; conditions: 80 g/ha, visual assessment about 3 weeks after treatment
Method: as §2

[19] = tested on: Abutilon theophrasti; assay: Post-emergence herbicidal action against ABUTH
Method: as §2

[20] = tested on: Viola tricolor; assay: Post-emergence herbicidal action against VIOTR
Method: as §2

[21] = tested on: Pharbitis purpurea; assay: Post-emergence herbicidal action against PHBPU; conditions: 20 g/ha, visual assessment about 3 weeks after treatment
Method: as §2

[22] = tested on: Avena fatua; assay: Post-emergence herbicidal action against AVEFA; conditions: 20 g/ha, visual assessment about 3 weeks after treatment
Method: as §2

[23] = tested on: Polygonum convolvulus; assay: Pre-emergence herbicidal action against POLCO; conditions: 80 g/ha
From the text: as §1

Structure (SMILES) | Pre-emergence action against ECHCG ([1]; 80 g/ha) [%] | Pre-emergence action against DIGSA ([2]; 20 g/ha) [%] | Pre-emergence action against DIGSA ([2]; 80 g/ha) [%] | Post-emergence action against ALOMY [3] [%] | Post-emergence action against MATIN in % ([4]; 20 g/ha) [%] | Pre-emergence action against VIOTR ([5]; 20 g/ha) [%] | Pre-emergence action against VIOTR ([5]; 80 g/ha) [%] | Post-emergence action against ECHCG in % ([6]; 20 g/ha) [%] | Pre-emergence action against ALOMY ([7]; 80 g/ha) [%] | Pre-emergence action against SETVI ([8]; 80 g/ha) [%] | Pre-emergence action against AMARE ([10]; 20 g/ha) [%] | Pre-emergence action against AMARE ([10]; 80 g/ha) [%] | Pre-emergence action against ABUTH ([11]; 80 g/ha) [%] | Pre-emergence action against VERPE ([12]; 80 g/ha) [%] | Pre-emergence action against MATIN ([13]; 20 g/ha) [%] | Pre-emergence action against MATIN ([13]; 80 g/ha) [%] | Post-emergence action against SETVI in % ([14]; 20 g/ha) [%] | Pre-emergence action against ABUTH ([11]; 20 g/ha) [%] | Post-emergence action against AMARE in % ([15]; 5 g/ha) [%] | Post-emergence action against AMARE in % ([15]; 20 g/ha) [%] | other results
Cc1c(C(=O)Nc2nnnn2C)ccc(C(F)(F)F)c1C(=O)N(C)C1CC1 [Example 1-21] | 90 | 100 | 100 | 80 | 80 | 90 | 100 | 90 | 90 | 100 | 100 | 100 | 100 | 80 | 80 | 100 | 90 | – | – | – | Post-emergence action against VERPE in % [9]: 80%
Cn1nnnc1NC(=O)c1ccc(C(F)(F)F)c(C(=O)N(C2CC2)C2CC2)c1Cl [Example 1-144] | – | – | 100 | – | – | 80 | 100 | – | – | – | 90 | 100 | 100 | – | 90 | 100 | – | 80 | 90 | 90 | –
Cc1c(C(=O)Nc2nnnn2C)ccc(S(C)(=O)=O)c1C(=O)N(C)C [Example 1-395] | – | – | – | – | – | – | 80 | 100 | – | – | – | 100 | 90 | 100 | – | – | – | – | – | – | Pre-emergence action against ECHCG ([1]; 320 g/ha): 100%; Pre-emergence action against VIOTR ([5]; 320 g/ha): 100%; Pre-emergence action against CYPES ([16]; 80 g/ha): 100%; Pre-emergence action against CYPES ([16]; 320 g/ha): 100%; Post-emergence action against ECHCG in % ([6]; 80 g/ha): 100%; Pre-emergence action against SETVI ([8]; 320 g/ha): 100%; Pre-emergence action against AMARE ([10]; 320 g/ha): 100%; Pre-emergence action against ABUTH ([11]; Dosage column 320 g/ha (heading prints 3200 g/ha)): 100%; Pre-emergence action against STEME [17]: 100%; Post-emergence action against STEME in % [18]: 100%; Pre-emergence action against VERPE ([12]; 20 g/ha): 90%; Pre-emergence action against VERPE ([12]; 320 g/ha): 100%; Pre-emergence action against MATIN ([13]; 320 g/ha): 100%; Post-emergence action against ABUTH ([19]; 80 g/ha): 100%; Post-emergence action against AMARE in % ([15]; 80 g/ha): 80%; Post-emergence action against VIOTR in % ([20]; 80 g/ha): 90%; Post-emergence action against SETVI in % ([14]; 80 g/ha): 90%
CCOC(=O)[C@@H]1CCCN1C(=O)c1c(C(F)(F)F)ccc(C(=O)Nc2nnnn2C)c1C [Example 1-401] | – | 90 | 100 | – | 90 | – | – | – | – | 100 | 100 | 100 | 100 | – | – | 90 | – | 100 | – | – | Post-emergence action against PHBPU in % [21]: 80%
CCN(CC)C(=O)c1c(C(F)(F)F)ccc(C(=O)Nc2nnnn2CC)c1C [Example 2-31] | – | 90 | 100 | 80 | 90 | 100 | 100 | 90 | 80 | 90 | 100 | 100 | 100 | 80 | 90 | 100 | 90 | 100 | – | – | Post-emergence action against MATIN in % ([4]; 5 g/ha): 80%; Post-emergence action against ECHCG in % ([6]; 5 g/ha): 80%; Post-emergence action against PHBPU in % [21]: 90%; Post-emergence action against VIOTR in % ([20]; 5 g/ha): 100%; Post-emergence action against VIOTR in % ([20]; 20 g/ha): 100%; Post-emergence action against SETVI in % ([14]; 5 g/ha): 80%; Post-emergence action against AVEFA in % [22]: 80%
CCn1nnnc1NC(=O)c1ccc(C(F)F)c(C(=O)N(C)C)c1C [Example 2-50] | 80 | – | – | 80 | – | – | – | 90 | 90 | – | 90 | 100 | 100 | 80 | 90 | 90 | 80 | – | 100 | 100 | Pre-emergence action against POLCO [23]: 90%; Post-emergence action against ECHCG in % ([6]; 5 g/ha): 80%; Post-emergence action against VERPE in % [9]: 90%; Post-emergence action against ABUTH ([19]; 5 g/ha): 90%; Post-emergence action against ABUTH ([19]; 20 g/ha): 90%; Post-emergence action against VIOTR in % ([20]; 20 g/ha): 90%
CCN(C(=O)c1c(C(F)(F)F)ccc(C(=O)Nc2nnnn2CC)c1Cl)C1CC1 [Example 2-136] | 90 | 90 | 100 | 90 | 80 | 100 | 100 | 90 | 100 | 100 | 100 | 100 | 100 | – | 80 | 100 | – | 100 | 100 | 100 | Pre-emergence action against ALOMY ([7]; 20 g/ha): 90%; Post-emergence action against ABUTH ([19]; 5 g/ha): 80%; Post-emergence action against ABUTH ([19]; 20 g/ha): 90%; Post-emergence action against VIOTR in % ([20]; 5 g/ha): 100%; Post-emergence action against VIOTR in % ([20]; 20 g/ha): 100%; Post-emergence action against AVEFA in % [22]: 80%
CCOC(=O)[C@@H]1CCCN1C(=O)c1c(C(F)(F)F)ccc(C(=O)Nc2nnnn2CC)c1Cl [Example 2-398] | – | – | 90 | – | – | – | 100 | – | – | 80 | – | 100 | 100 | – | – | 100 | – | 80 | – | – | –
CCOC(=O)[C@@H]1CCCN1C(=O)c1c(C(F)(F)F)ccc(C(=O)Nc2nnnn2CC)c1C [Example 2-399] | 90 | 90 | 100 | – | 80 | 90 | 100 | 80 | – | 100 | 90 | 100 | 100 | 100 | 90 | 100 | – | 100 | – | 80 | Pre-emergence action against VERPE ([12]; 20 g/ha): 100%; Post-emergence action against PHBPU in % [21]: 90%
